Laboratory results reported in US12350272B2, “Pyridopyrimidinone derivatives for use as AXL inhibitors” (OSCOTEC INC., priority 2018, dated 2025).
Structures can show the parent of a compound that is named as a salt. Where two headings read alike, the source gives them in different places.

Experiments:
[1] = tested on: Hs578T cells; assay: Cell viability assay (ATPLite), Hs578T; format: cell-based, human; details: 72 hour incubation
Description: (§1) Axl is a member of the TAM (TYRO3-Axl-MER) family of receptor tyrosine kinases, which, when activated, can increase tumor cell survival, proliferation, migration and invasion, angiogenesis, and tumor-host interactions. Upon GAS6 binding to Axl, Axl subsequently activates the signaling pathways downstream such as phosphoinositide 3-kinase (PI3K), RAt sarcoma (RAS), and extracellular signal regulated kinase (ERK).
(§2) This cell line was maintained with an Roswell Park Memorial Institute (RPMI) medium (HYCLONE™) containing 10% bovine calf serum (BCS; HYCLONE™) supplemented iron. The cells were seeded at 2×10^4 cells in 96-well culture plates, and serially diluted compounds were then added. After a 72 hour incubation period at 37° C., cell viability was measured using the ATPLite 1 step assay (PERKIN-ELMER™) that is based on the quantification of ATP from viable cells.

[2] = target: JAK2 (Homo sapiens (Human), UniProt O60674); assay: Biochemical inhibition of JAK2; details: Table 2, range of IC50 value
[3] = tested on: MDA-MB-231 cells; assay: Cell viability assay (ATPLite), MDA-MB-231; format: cell-based, human; details: 72 hour incubation
Description: as §1, §2

[4] = target: Truncated human Axl (Homo sapiens, UniProt P30530); assay: Kinase inhibition assay (inhibition of enzymatic Axl kinase activity); format: biochemical
Experimental: Compounds of Formula (I) as obtained above were assayed to measure their capacity to inhibit Axl kinase. Axl belongs to the recently identified TYRO-3, Axl, MERTK (TAM) receptor tyrosine kinase (RTK) family. […] Upon GAS6 binding, Axl homodimerizes and subsequently induces several downstream signaling pathways involved in cell proliferation, migration, invasion, anti-apoptosis, angiogenesis, metastasis, and therapeutic resistance. Upregulation of Axl has been reported in a wide variety of cancer cell lines as well as in cancer specimens from patients with breast cancer, acute leukemia, colorectal cancer, lung cancer, melanoma, ovarian cancer, or prostate cancer, among others.
Compounds of Formula (I) as obtained above were initially diluted to […] in 100% DMSO (CALBIOCHEM™) for storage and made into kinase buffer solution to create a compound concentration ranging from 1 uM and 10 uM. Serial dilutions of the compounds were dispensed into a 96-well plate (GREINER BIOSCIENCES™) at 6 μL each. Truncated human Axl (CARNA BIOSCIENCES™) were diluted in kinase buffer and added to the compound solutions and pre-incubated for 30 minutes at room temperature. […] The reaction mixture was incubated for 1 hour. Following the incubation, the stop solution made with EDTA, water, and Lance detection buffer ([…]™) were added (12 μL each) to stop phosphorylation.

[5] = tested on: 4T1; assay: Anti-tumor activity in immunodeficient mice; format: in vivo; details: 30 mg/kg/day
[6] = tested on: MDA-MB-231 breast cancer cell line; assay: Matrigel invasion assay; format: cell-based, human; details: even at 0.03 μM, compared to R428
Experimental: (§3) In order to test whether the compounds of Formula (I) show the effect on inhibition of metastasis, cell migratory and invasive behaviors analyzed using transwell and matrigel invasion assays in MDA-MB-231 breast cancer cell line. […] Cell migration was performed by the transwell assay (BD Biosciences, CA, USA). Briefly, 5×10^4 cells in serum-free RPMI-1640 were seeded on a membrane (8.0-μm pore size) inserted in the wells of a 24-well plate. RPMI-1640 containing 10% FBS was added to the lower chamber of each well. After 24 h, cells in the upper chamber were removed by cotton swab and the cells that had reached the underside of the membrane were fixed and stained with crystal violet (1% in methyl alcohol) for 10 min. The cells located on the underside of the filter (5 fields/filter) were counted. The cell invasion assay was carried out similarly, except that the matrigel (BD Biosciences, CA, USA) was added to each well 6 h before cells were seeded on the membrane. After 48 h, matrigel and any remaining cells in the upper chamber were removed by cotton swabs. Cells on the lower surface of the membrane were fixed and stained as described above. Data are representative of results from three independent fields of stained membrane.

[7] = tested on: mouse breast 4T1 cancer cells; assay: Anti-tumor activity in breast 4T1 syngeneic in vivo cancer model; details: BALB/C mice
Experimental: A day before cell inoculation, fur on the right flank of BALB/C mice was depilated using hair trimmer. On the following day, the skin area around the injection site was disinfected by mildly swabbing with surgical spirit. To establish allografts, cells were suspended in serum-free media and mixed 1:1 with matrigel to obtain 1×10^6 cells/100 μL. […] Mice were randomized based on tumor volume and six mice were allocated per group. Tumor grafts were measured after approximately 5 days of cell inoculation when they become palpable. […] Tumor growth inhibition (TGI) was calculated as follows: % TGI=[1−(Treatment TVFinal−Treatment TVinitial)/(Control TVFinal−Control TVInitial)]*100

[8] = tested on: MDA-MB-231 breast cancer cell line; assay: Transwell migration assay; format: cell-based, human; details: even at 0.03 μM, compared to R428
Experimental: as §3

[9] = tested on: mouse B16F10 melanoma cells; assay: B16F10 lung in vivo metastasis model; details: oral 30 mg/kg/day
Experimental: (§4) Compounds of Formula (I) as obtained above were tested in metastasis models using mouse B16F10 melanoma and CT26-Luciferase colon cancer cells. […] Cell line was harvested by trypsinization when they reached 70-80% confluence. A day before cell inoculation, C57BL/6 mice were maintained under pathogen-free conditions according to SPF guideline (room temperature, 40-60% humidity) and housed in the ABMRC at the Yonsei University.
(§5) Mice were randomized, and three mice for B16F10 model and five mice for CT26 peritoneal metastasis model were allocated per group. Lung metastasis was measured after 14 days of cell inoculation. […] Vehicle for oral administration consists of 10% sodium sulphobutylether β-cyclodextrine (SBECD) in 50 mM citrate buffer (pH 3.0). Animals were monitored for mortality and clinical signs (such as illness and behavioral changes) daily throughout the study. In B16F10 model, after mice sacrificed, organs were fixed with 10% of Formalin solution for 1 day. The FFPE block was sliced by 4 μm thinness on coating slides for applying the H&E staining. Then, tumor nodule counting was calculated. CT26 metastasis was determined by measuring luminescence intensity in peritoneal cavity.

[10] = tested on: mouse 4T1 breast cancer cells; assay: 4T1 spontaneous (orthotopic) metastasis model, combination with anti-PD-1 antibody; format: in vivo, BALB/c female mice
Description: A day before cell inoculation, fur on the right flank of BALB/C mice was depilated using hair trimmer. On the following day, the skin area around the injection site was disinfected by mildly swabbing with surgical spirit. To establish allografts, BALB/c female mice (7-weeks age) were implanted orthotopically into the mammary gland with 5×10^6 syngeneic 4T1 cells. Mice were sacrificed when average tumor volume reached 1500 mm^3.
Mice were randomized based on tumor volume (˜50 mm^3) and five mice were allocated per group. Tumor grafts were measured after approximately 2 days of cell inoculation when they become palpable. […] After treatment for 28 days, all mice were sacrificed. 4T1 lung metastasis was determined by counting the tumor nodules through H&E staining. 4T1 solid tumor on primary site was measured by a tumor 3D scanner, TM900 (Peria, Belgium). […] The metastatic nodule was measured by microscopic observation.
BALB/c female mice (7-weeks age) were implanted orthotopically into the mammary gland with 5×10^6 syngeneic 4T1 cells. […] Mice were sacrificed on day 28 and lung metastasis was evaluated by counting nodules.

[11] = tested on: CT26-Luciferase colon cancer cells; assay: CT26 peritoneal in vivo metastasis model; details: 30 mg/kg/day
Experimental: as §4, §5

[12] = Table 2, range of IC50 value, read-out: Axl
[13] = day 15, oral QD 30 mg/kg/day for 14 days

JAK2, sequence (O60674 whole entry, species assumed): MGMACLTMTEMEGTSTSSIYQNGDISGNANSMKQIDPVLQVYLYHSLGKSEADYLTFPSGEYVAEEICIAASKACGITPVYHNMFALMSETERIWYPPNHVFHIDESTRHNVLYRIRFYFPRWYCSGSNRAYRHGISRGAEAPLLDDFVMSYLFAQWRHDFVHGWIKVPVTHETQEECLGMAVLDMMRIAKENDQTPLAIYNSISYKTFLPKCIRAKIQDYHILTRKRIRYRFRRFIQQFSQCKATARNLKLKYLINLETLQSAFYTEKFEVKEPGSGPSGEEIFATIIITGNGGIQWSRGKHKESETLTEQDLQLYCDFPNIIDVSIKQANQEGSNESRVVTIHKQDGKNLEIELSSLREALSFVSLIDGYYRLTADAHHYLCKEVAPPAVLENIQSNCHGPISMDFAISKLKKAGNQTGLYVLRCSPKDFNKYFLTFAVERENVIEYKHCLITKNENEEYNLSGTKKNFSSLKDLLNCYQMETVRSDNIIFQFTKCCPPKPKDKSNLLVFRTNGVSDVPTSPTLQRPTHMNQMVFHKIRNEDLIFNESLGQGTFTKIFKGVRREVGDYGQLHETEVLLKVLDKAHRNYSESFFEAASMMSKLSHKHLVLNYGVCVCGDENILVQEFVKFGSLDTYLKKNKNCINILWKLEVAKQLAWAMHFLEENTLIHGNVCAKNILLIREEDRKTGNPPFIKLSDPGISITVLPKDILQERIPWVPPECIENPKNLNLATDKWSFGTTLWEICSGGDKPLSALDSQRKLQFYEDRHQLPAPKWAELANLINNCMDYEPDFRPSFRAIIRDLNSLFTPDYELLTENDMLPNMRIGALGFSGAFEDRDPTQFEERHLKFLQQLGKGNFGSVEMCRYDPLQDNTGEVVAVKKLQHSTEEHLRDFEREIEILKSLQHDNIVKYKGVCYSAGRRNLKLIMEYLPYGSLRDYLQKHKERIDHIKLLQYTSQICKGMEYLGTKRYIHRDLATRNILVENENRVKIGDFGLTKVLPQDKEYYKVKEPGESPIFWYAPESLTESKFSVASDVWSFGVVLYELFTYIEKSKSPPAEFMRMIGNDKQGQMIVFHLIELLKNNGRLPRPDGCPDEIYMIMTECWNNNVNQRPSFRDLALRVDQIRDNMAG
Truncated human Axl, sequence (P30530 26-894 limits assumed): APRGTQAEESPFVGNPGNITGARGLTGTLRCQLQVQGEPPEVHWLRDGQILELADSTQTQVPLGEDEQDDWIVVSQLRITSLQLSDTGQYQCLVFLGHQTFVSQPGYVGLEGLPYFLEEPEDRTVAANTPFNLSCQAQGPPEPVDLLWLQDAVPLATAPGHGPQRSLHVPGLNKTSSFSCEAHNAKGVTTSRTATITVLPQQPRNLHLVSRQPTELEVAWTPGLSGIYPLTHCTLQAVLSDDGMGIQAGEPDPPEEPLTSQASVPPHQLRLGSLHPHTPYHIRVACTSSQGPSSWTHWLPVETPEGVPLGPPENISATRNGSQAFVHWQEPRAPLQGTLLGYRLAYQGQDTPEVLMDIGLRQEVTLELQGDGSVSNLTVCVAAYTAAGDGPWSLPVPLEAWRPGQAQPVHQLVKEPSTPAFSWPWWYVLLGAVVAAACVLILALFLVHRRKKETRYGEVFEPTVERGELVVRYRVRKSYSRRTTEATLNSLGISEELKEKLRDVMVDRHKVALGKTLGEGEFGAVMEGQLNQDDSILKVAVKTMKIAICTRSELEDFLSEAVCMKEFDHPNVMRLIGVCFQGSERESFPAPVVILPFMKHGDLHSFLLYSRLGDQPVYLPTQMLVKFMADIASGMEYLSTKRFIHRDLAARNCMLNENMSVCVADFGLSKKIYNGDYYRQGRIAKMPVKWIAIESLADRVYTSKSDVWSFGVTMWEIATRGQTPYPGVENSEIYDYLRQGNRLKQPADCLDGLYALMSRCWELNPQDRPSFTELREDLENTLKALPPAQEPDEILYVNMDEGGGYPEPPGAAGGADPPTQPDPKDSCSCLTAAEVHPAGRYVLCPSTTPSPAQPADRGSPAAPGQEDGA

Compound	GI50 ([1]; Homo sapiens, Hs-578T, 72 h) [nM]	IC50 [2] [nM]	GI50 ([3]; Homo sapiens, MDA-MB-231, 72 h) [nM]	IC50 ([4]; Table 1, read-out: Axl (IC50)) [nM]	IC50 [4, 12] [nM]	other results
CCc1nc(C(N)=O)c(Nc2ccc(N3CCC(N4CCN(C)CC4)CC3)c(OC)c2)nc1NC1CCOCC1 [ASP2215, gilteritinib, reference compound]	3100 to 10000	11 to 100	3100 to 10000	–	–	–
CN1CCC(Nc2nc(Nc3ccc(OC4CCCCC4)cc3)c3c(=O)[nH]cc(Br)c3n2)CC1 [Compound 233, 8-bromo-4-((4-(cyclohexyloxy)phenyl)amino)-2-((1-methylpiperidin-4-yl)amino)pyrido[4,3-d]pyrimidin-5(6H)-one hydrochloride]	–	101 to 1000	–	101 to 1000	101 to 1000	GI50 ([1]; hydrochloride): 1100 to 3000 nM; GI50 ([3]; hydrochloride): 3100 to 10000 nM
CN1CCC(Nc2nc(Nc3ccc(Oc4ccc(F)c(F)c4)cc3)c3c(=O)[nH]cc(Br)c3n2)CC1 [Compound 241, 8-bromo-4-((4-(3,4-difluorophenoxy)phenyl)amino)-2-((1-methylpiperidin-4-yl)amino)pyrido[4,3-d]pyrimidin-5(6H)-one hydrochloride]	3100 to 10000	1000 to 10000	3100 to 10000	11 to 100	11 to 100	–
CN1CCC(Nc2nc(Nc3ccc(Oc4cccc(F)c4)cc3)c3c(=O)[nH]cc(Br)c3n2)CC1.Cl [Compound 238, 8-bromo-4-((4-(3-fluorophenoxy)phenyl)amino)-2-((1-methylpiperidin-4-yl)amino)pyrido[4,3-d]pyrimidin-5(6H)-one hydrochloride]	–	101 to 1000	–	11 to 100	11 to 100	anti-tumor effect [5]: no anti-tumor effect; invasion of MDA-MB-231 cells [6]: significantly inhibited; average tumor volume [7, 13]: 669±60 mm^3; tumor growth inhibition (TGI) [7, 13]: 59%; tolerability (clinical signs, body weight) ([7]; oral QD 30 mg/kg/day): well tolerated; inhibition of kinase activity of Axl ([4]; result in words): strong inhibition; GI50 ([1]; hydrochloride): 1100 to 3000 nM; migration of MDA-MB-231 cells [8]: significantly inhibited; GI50 ([3]; hydrochloride): 1100 to 3000 nM
Nc1nc(Nc2ccc3c(c2)CC[C@@H](N2CCCC2)CC3)nn1-c1cc2c(nn1)-c1ccccc1CCC2 [Compound R428, reference compound]	3100 to 10000	101 to 1000	11000 to 30000	–	–	–
CN1CCC(Nc2nc(Nc3ccc(Oc4cccc(F)c4)cc3)c3c(=O)[nH]cc(Br)c3n2)CC1 [Compound 240, 8-bromo-4-((4-(3-fluorophenoxy)phenyl)amino)-2-((1-methylpiperidin-4-yl)amino)pyrido[4,3-d]pyrimidin-5(6H)-one]	–	101 to 1000	–	11 to 100	11 to 100	GI50 [1]: 3100 to 10000 nM; GI50 [3]: 3100 to 10000 nM
CN1CCC(Nc2nc(Nc3ccc(Oc4ccccc4)cc3)c3c(=O)[nH]cc(Br)c3n2)CC1.Cl [Compound 226, 8-bromo-2-((1-methylpiperidin-4-yl)amino)-4-((4-phenoxyphenyl)amino)pyrido[4,3-d]pyrimidin-5(6H)-one hydrochloride]	–	101 to 1000	–	–	–	tolerability (clinical signs) ([9]; B16F10 lung and CT-26 peritoneal metastasis models): well tolerated; lung metastasis in gross lung specimens ([9]; B16F10 model): dramatically inhibited lung metastasis; tumor nodules ([9]; B16F10 model): no tumor nodules; total metastatic burden and number of larger metastases (medium+large, ≥5 mm diameter) ([10]; 30 mg/kg/day, 4 weeks): significantly suppressed; tumor growth on primary site (mammary fat pad) ([10]; 4 weeks treatment, no different efficacy between groups): inhibition of tumor growth; metastasis into the lung (tumor nodules) ([10]; day 28, compound 226 30 mg/kg/day and/or anti-PD-1 antibody twice/week for 4 weeks): significantly decreased; luminescence intensity in the peritoneal cavity ([11]; CT-26 peritoneal metastasis model): drastically reduced; survival of mice ([11]; QD, vehicle mice started to die from day 9): alive during the treatment period
